Reference: US20110065645A1, “Compositions and Methods for Modulating Neuron Degeneration and Neuron Guidance” (The Regents of the University of California, priority 2009, published 2011)

Tests used:
[1] = tested on: commissural axons; test: Open book spinal cord explant treatments and DiI injections (midline pathfinding); type: cell-based; details: rat E13 open-book; 5E1 100 ng/ml, Forskolin 25 μM, KT5720 25 μM; 12-14 hrs
Text: Blocking Shh activity causes midline guidance defects. To determine the role of Shh in regulating midline pathfinding, we analyzed the trajectory of commissural axons in rat E13 “open-book” spinal cord preparations treated with the function-blocking antibody for Shh, 5E1. The projections of these commissural axons were visualized by injecting the lipophilic dye, DiI, to the dorsal margin of the spinal cord (FIG. 32J). In “open-book” explants, commissural axons can recapitulate the in vivo pathfinding and project from the dorsal spinal cord margin across the floor plate and then turn sharply anteriorly on the contralateral side.^(7,8). […] Normally, after midline crossing, commissural axons make a sharp anterior turn and either project into the ventral funiculus alongside the floor plate or fan out in a highly organized manner to grow laterally into the lateral funiculus^(7) (FIG. 32G). […] The spinal cord midline is a three-dimensional structure. […] Some of the injection sites were therefore scored for more than one category of phenotypes. […]
Shh may induce Sema repulsion by reducing cAMP/PKA signaling. […] In “open-book” explant cultures we treated commissural axons with the activator for adenylyl cyclase (and consequently cAMP), Forskolin and the PKA inhibitor KT5720 and analyzed commissural axon pathfidning by DiI tracing as shown in FIG. 32J. […]

[2] = tested on: PKA; test: Western blot of activated phospho-PKA (Thr197) in dissociated commissural neurons; type: cell-based, rat; details: Shh-N 2.5 μg/ml for one hour; KT5720 25 μM for 15 minutes
Protocol: To confirm that PKA activity can be reduced in commissural neurons exposed to Shh, we treated dissociated spinal cord commissural neurons with Shh and analyzed the level of activated PKA. 24 hr after plating, commissural neurons were serum starved overnight and then treated with 2.5 μg/ml (150 nM) of Shh-N recombinant protein (R&D) for one hour prior to lysate collection. Forskolin (25 μM), and the PKA inhibitor, KT5720 (25 μM) were added to the commissural neuron culture as controls for 15 minutes before lysis. We then tested these lysates for levels of activated PKA with an antibody that specifically recognizes an activated form of the catalytic domain of PKA (phosphorylated at Thr197).
Dissociated commissural neuronal culture. Spinal cords were isolated from rat E13 embryos and commissural neurons were dissociated as previously described.^(8) In brief, embryos were treated with Dispase I (0.25 mg/ml; D4818, Sigma) for 5 minutes prior isolation of spinal cords, followed by collection of spinal cord dorsal domains by microdissection and incubation with Trypsin (1 mg/ml; T47-99, Sigma) for 10-12 min in a 37° C. water bath. The tissue was then triturated with flamed glass pipettes and a single cell suspension was plated on poly-D-lysine (PDL; 20 μg/ml) and laminin (10 μg/ml) coated coverslips or 12 well plates (Corning). More than 90% cells in these cultures express TAG-1, a marker for spinal cord commissural neurons (FIG. 35B). 10^5 dissociated cells were plated on PDL/laminin coated coverslips and cultured for 24 hrs before processed for immunohistochemistry as described above. For Western blot analysis, 10^6 dissociated cells were plated on PDL/laminin coated 12-well tissue culture plates and cultured initially for 24 hrs in dorsal explant media (replenished daily) then changed to low serum medium overnight prior to treatments. […]

Question: Which results are given for `CCCCCCOC(=O)[C@]1(O)C[C@@H]2O[C@@]1(C)n1c3ccccc3c3c4c(c5c6ccccc6n2c5c31)C(=O)NC4` [KT5720, reference compound]?
Answer: commissural axon midline pathfinding (DiI tracing) [1]: prevented a vast number of axons from entering the floor plate; level of activated PKA [2]: reduce the level of activated PKA
